Source: PubChem BioAssay AID248 (DTP/NCI, 2004)
“And” between values parts separate entries of the source, which are not always exact repeats. Identical values can stand only once. Toxic doses and inconclusive results are not listed.

Test system: L1210 leukemia ip in BDF1 mice, survival T/C
Assay: NCI In Vivo Anticancer Drug Screen. Data for tumor model L1210 Leukemia (intraperitoneal) in B6D2F1 (BDF1) mice
Details: endpoint: mean survival time, higher = longer survival
Method in brief: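 Transplantable tumor model; survival measured in treated vs vehicle control mice. Value = treated/control.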

[1] = dose: 100.0 mg/kg/injection, schedule: Q04DX002 (ip), vehicle: Klucel (hydroxypropylcellulose) (HPC)
[2] = dose: 200.0 mg/kg/injection, schedule: Q04DX002 (ip), vehicle: Klucel (hydroxypropylcellulose) (HPC)
[3] = dose: 400.0 mg/kg/injection, schedule: Q04DX002 (ip), vehicle: Klucel (hydroxypropylcellulose) (HPC)
[4] = dose: 100.0 mg/kg/injection, schedule: Q01DX001 (ip), vehicle: saline
[5] = dose: 200.0 mg/kg/injection, schedule: Q01DX001 (ip), vehicle: saline
[6] = dose: 400.0 mg/kg/injection, schedule: Q01DX001 (ip), vehicle: saline

NC(=O)OCCI was tested, and the T/C (dose: 50.0 mg/kg/injection, schedule: Q01DX009 (ip), vehicle: saline) was 105 % of control, the T/C (dose: 50.0 mg/kg/injection, schedule: Q04DX003 (ip), vehicle: other) was 101 % of control and the T/C (dose: 100.0 mg/kg/injection, schedule: Q04DX003 (ip), vehicle: other) was 121 % of control. For the same compound, the T/C (dose: 200.0 mg/kg/injection, schedule: Q04DX003 (ip), vehicle: other) was 119 % of control.
CCOC(=O)C1=C(O)c2c(sc(C)c2C)N(S(=O)(=O)c2ccc(C)cc2)CC1 was tested, and the T/C (dose: 50.0 mg/kg/injection, schedule: Q01DX009 (ip), vehicle: saline with Tween-80) was 93 % of control, the T/C (dose: 50.0 mg/kg/injection, schedule: Q04DX003 (ip), vehicle: saline with Tween-80) was 97 % of control and the T/C (dose: 100.0 mg/kg/injection, schedule: Q01DX009 (ip), vehicle: saline with Tween-80) was 90 % of control. For the same compound, the T/C (dose: 100.0 mg/kg/injection, schedule: Q04DX003 (ip), vehicle: saline with Tween-80) was 101 % of control, the T/C (dose: 200.0 mg/kg/injection, schedule: Q01DX009 (ip), vehicle: saline with Tween-80) was 96 % of control and the T/C (dose: 200.0 mg/kg/injection, schedule: Q04DX003 (ip), vehicle: saline with Tween-80) was 93 % of control. The T/C (dose: 400.0 mg/kg/injection, schedule: Q04DX003 (ip), vehicle: saline with Tween-80) was 98 % of control.
In the case of Cc1cc(C)cc(OCCO)c1, the T/C [1] is reported as 97 % of control, the T/C [2] is reported as 102 % of control and the T/C [3] is reported as 91 % of control.
With CC(=O)Nc1ncn[nH]1 the T/C (dose: 50.0 mg/kg/injection, schedule: Q01DX001 (ip), vehicle: saline) was 98 % of control, the T/C [4] was 98 % of control and the T/C [5] was 101 % of control. The T/C [6] was 101 % of control.
With Cc1cc(N(CCCl)CCCl)ccc1C=Nc1ccccc1-c1ccccc1 the T/C (dose: 5.0 mg/kg/injection, schedule: Q01DX Z (ip), vehicle: carboxymethylcellulose (CMC)) was 110 % of control, the T/C (dose: 10.0 mg/kg/injection, schedule: Q01DX Z (ip), vehicle: carboxymethylcellulose (CMC)) was 114 % of control and the T/C (dose: 40.0 mg/kg/injection, schedule: Q01DX Z (ip), vehicle: carboxymethylcellulose (CMC)) was 109 % of control. For the same compound, the T/C (dose: 80.0 mg/kg/injection, schedule: Q01DX Z (ip), vehicle: carboxymethylcellulose (CMC)) was 117 % of control.
With CCC(C(C)N1CC(=O)NC(=O)C1)N1CC(=O)NC(=O)C1 (centres undefined) the T/C (dose: 0.5 mg/kg/injection, schedule: Q01DX009 (ip), vehicle: Klucel (hydroxypropylcellulose) (HPC)) was 154 % of control, the T/C (dose: 1.0 mg/kg/injection, schedule: Q04DX003 (ip), vehicle: Klucel (hydroxypropylcellulose) (HPC)) was 120 % of control and the T/C (dose: 2.0 mg/kg/injection, schedule: Q01DX009 (ip), vehicle: Klucel (hydroxypropylcellulose) (HPC)) was 102 % of control. For the same compound, the T/C (dose: 2.0 mg/kg/injection, schedule: Q04DX003 (oral), vehicle: Klucel (hydroxypropylcellulose) (HPC)) was 123 % of control, the T/C (dose: 4.0 mg/kg/injection, schedule: Q01DX009 (ip), vehicle: Klucel (hydroxypropylcellulose) (HPC)) was 91 % of control and the T/C (dose: 4.0 mg/kg/injection, schedule: Q04DX003 (ip), vehicle: Klucel (hydroxypropylcellulose) (HPC)) was 203 % of control. The T/C (dose: 8.0 mg/kg/injection, schedule: Q04DX003 (ip), vehicle: Klucel (hydroxypropylcellulose) (HPC)) was 219 % of control, the T/C (dose: 8.0 mg/kg/injection, schedule: Q04DX003 (oral), vehicle: Klucel (hydroxypropylcellulose) (HPC)) was 161 % of control and the T/C (dose: 16.0 mg/kg/injection, schedule: Q04DX003 (ip), vehicle: Klucel (hydroxypropylcellulose) (HPC)) was 96 % of control. The T/C (dose: 32.0 mg/kg/injection, schedule: Q04DX003 (ip), vehicle: Klucel (hydroxypropylcellulose) (HPC)) was 119 % of control and the T/C (dose: 64.0 mg/kg/injection, schedule: Q04DX003 (oral), vehicle: Klucel (hydroxypropylcellulose) (HPC)) was 93 % of control.
With NC(CC1CCCCC1)C(=O)O (centres undefined) the T/C [1] was 91 % of control, the T/C [2] was 88 % of control and the T/C [3] was 91 % of control.
O=C(Nc1ccc(Cl)c(C(F)(F)F)c1)Oc1cccnc1 was tested, and the T/C (dose: 25.0 mg/kg/injection, schedule: Q01DX009 (ip), vehicle: Klucel (hydroxypropylcellulose) (HPC)) was 94 % of control and the T/C (dose: 100.0 mg/kg/injection, schedule: Q01DX009 (ip), vehicle: Klucel (hydroxypropylcellulose) (HPC)) was 92 % of control and 93 % of control.
In the case of CCCCCCOC(=O)C(C)(O)C(Cl)c1ccccc1 (centres undefined), the T/C (dose: 100.0 mg/kg/injection, schedule: Q04DX002 (ip), vehicle: saline) is reported as 100 % of control, the T/C (dose: 200.0 mg/kg/injection, schedule: Q04DX002 (ip), vehicle: saline) is reported as 111 % of control and the T/C (dose: 400.0 mg/kg/injection, schedule: Q04DX002 (ip), vehicle: saline) is reported as 91 % of control.
In the case of CCN(CC)Cc1nnnn1-c1ccccc1, the T/C [4] is reported as 103 % of control, the T/C [5] is reported as 97 % of control and the T/C [6] is reported as 106 % of control.
